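Method: 48-hour compound exposure of cells in 96-well plates, five concentrations, linear interpolation of endpoints. At the GI50, growth is halved.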 Calls of active or inactive are those of the source. Cut-off read from the data, not from the text of the source: active = GI50 up to about 1.1 µM and inactive = higher.
Experiments:
Assay in all cases: NCI anticancer screen, dose series, 48 h
[1] = test system: HT-29
[2] = test system: LOX IMVI
[3] = test system: SNB-19
[4] = test system: MDA-MB-231
[5] = test system: SK-MEL-5
[6] = test system: SF-268
[7] = test system: Malme-3M
[8] = test system: A549
[9] = test system: HOP-62
[10] = test system: SK-OV-3
[11] = test system: MOLT-4
[12] = test system: SW-620
[13] = test system: DU-145
[14] = test system: ACHN
[15] = test system: COLO 205
[16] = test system: TK-10
[17] = test system: NCI-H460
[18] = test system: HCC 2998
[19] = test system: M14
[20] = test system: PC-3
[21] = test system: SF-539
[22] = test system: IGROV-1
[23] = test system: UACC-62
[24] = test system: HCT-15
[25] = test system: T47D
[26] = test system: SF-295
[27] = test system: NCI-H226
[28] = test system: K562
[29] = test system: MCF7
[30] = test system: HOP-92
[31] = test system: CCRF-CEM
[32] = test system: OVCAR-4
[33] = test system: SR
[34] = test system: RPMI-8226
[35] = test system: SNB-75
[36] = test system: EKVX
[37] = test system: SN12C
[38] = test system: CAKI-1
[39] = test system: HL-60
[40] = test system: NCI-H522
[41] = test system: NCI/ADR-RES
[42] = test system: SK-MEL-28
[43] = test system: RXF 393
[44] = test system: SK-MEL-2
[45] = test system: U-251
[46] = test system: MDA-MB-435
[47] = test system: OVCAR-3
[48] = test system: A498
[49] = test system: KM12
[50] = test system: UO-31
[51] = test system: UACC-257
[52] = test system: 786-0
[53] = test system: HCT-116
[54] = test system: NCI-H23
[55] = test system: OVCAR-8
[56] = test system: Hs-578T

**Q.** For CNC(=O)OC(COC)CN1CCN(c2ccccc2C)CC1 (stereo unspecified), which GI50 [1] is on record?
**A.** > 10 µM (inactive)

**Q.** What about the GI50 [2] of the same compound?
**A.** > 10 µM (inactive)

**Q.** What about the GI50 [3] of the same compound?
**A.** > 10 µM (inactive)

**Q.** What about the GI50 [4] of the same compound?
**A.** > 10 µM (inactive)

**Q.** And the GI50 [5]?
**A.** > 10 µM (inactive)

**Q.** And the GI50 [6]?
**A.** > 10 µM (inactive)

**Q.** And the GI50 [7]?
**A.** > 10 µM (inactive)

**Q.** What about the GI50 [8] of the same compound?
**A.** > 10 µM (inactive)

**Q.** What about the GI50 [9] of the same compound?
**A.** > 10 µM (inactive)

**Q.** And the GI50 [10]?
**A.** > 10 µM (inactive)

**Q.** And the GI50 [11]?
**A.** > 10 µM (inactive)

**Q.** What about the GI50 [12] of the same compound?
**A.** > 10 µM (inactive)

**Q.** What about the GI50 [13] of the same compound?
**A.** > 10 µM (inactive)

**Q.** And the GI50 [14]?
**A.** > 10 µM (inactive)

**Q.** What about the GI50 [15] of the same compound?
**A.** > 10 µM (inactive)

**Q.** And the GI50 [16]?
**A.** > 10 µM (inactive)

**Q.** What about the GI50 [17] of the same compound?
**A.** > 10 µM (inactive)

**Q.** And the GI50 [18]?
**A.** > 10 µM (inactive)

**Q.** And the GI50 [19]?
**A.** > 10 µM (inactive)

**Q.** What about the GI50 [20] of the same compound?
**A.** > 10 µM (inactive)

**Q.** What about the GI50 [21] of the same compound?
**A.** > 10 µM (inactive)

**Q.** What about the GI50 [22] of the same compound?
**A.** > 10 µM (inactive)

**Q.** What about the GI50 [23] of the same compound?
**A.** > 10 µM (inactive)

**Q.** And the GI50 [24]?
**A.** > 10 µM

**Q.** And the GI50 [25]?
**A.** > 10 µM (inactive)

**Q.** And the GI50 [26]?
**A.** > 10 µM (inactive)

**Q.** And the GI50 [27]?
**A.** > 10 µM (inactive)

**Q.** And the GI50 [28]?
**A.** > 10 µM (inactive)

**Q.** What about the GI50 [29] of the same compound?
**A.** > 10 µM (inactive)

**Q.** And the GI50 [30]?
**A.** > 10 µM (inactive)

**Q.** What about the GI50 [31] of the same compound?
**A.** > 10 µM (inactive)

**Q.** What about the GI50 [32] of the same compound?
**A.** > 10 µM (inactive)

**Q.** What about the GI50 [33] of the same compound?
**A.** > 10 µM (inactive)

**Q.** And the GI50 [34]?
**A.** > 10 µM (inactive)

**Q.** What about the GI50 [35] of the same compound?
**A.** > 10 µM (inactive)

**Q.** And the GI50 [36]?
**A.** > 10 µM (inactive)

**Q.** And the GI50 [37]?
**A.** > 10 µM (inactive)

**Q.** And the GI50 [38]?
**A.** > 10 µM (inactive)

**Q.** What about the GI50 [39] of the same compound?
**A.** > 10 µM (inactive)

**Q.** What about the GI50 [40] of the same compound?
**A.** > 10 µM (inactive)

**Q.** What about the GI50 [41] of the same compound?
**A.** > 10 µM (inactive)

**Q.** What about the GI50 [42] of the same compound?
**A.** > 10 µM (inactive)

**Q.** And the GI50 [43]?
**A.** > 10 µM (inactive)

**Q.** And the GI50 [44]?
**A.** > 10 µM (inactive)

**Q.** And the GI50 [45]?
**A.** > 10 µM (inactive)

**Q.** And the GI50 [46]?
**A.** > 10 µM (inactive)

**Q.** What about the GI50 [47] of the same compound?
**A.** > 10 µM (inactive)

**Q.** What about the GI50 [48] of the same compound?
**A.** > 10 µM (inactive)

**Q.** And the GI50 [49]?
**A.** > 10 µM (inactive)

**Q.** What about the GI50 [50] of the same compound?
**A.** > 10 µM (inactive)

**Q.** And the GI50 [51]?
**A.** > 10 µM (inactive)

**Q.** And the GI50 [52]?
**A.** > 10 µM (inactive)

**Q.** And the GI50 [53]?
**A.** > 10 µM (inactive)

**Q.** And the GI50 [54]?
**A.** > 10 µM (inactive)

**Q.** What about the GI50 [55] of the same compound?
**A.** > 10 µM (inactive)

**Q.** And the GI50 [56]?
**A.** > 10 µM (inactive)
